Assay results taken from article PMC4657098, “A Review of the Updated Pharmacophore for the Alpha 5 GABA(A) Benzodiazepine Receptor Model” (International Journal of Medicinal Chemistry, 2015).

Experiments:
C57BL/6J mice = assay type: in vivo
Description: Figure 3 XLi-093 (4) effects on cognition enhancement by Wenger et al. (data on statistical significance not shown, unpublished results). Effects of 4 on cognition from the mean delay achieved by C57BL/6J mice titrating delayed matching-to-position schedule.

5ht1a = target: T1, 5ht1a (Homo sapiens, UniProt P08908); test: PDSP receptor binding, 5ht1a; settings: PDSP primary screen at 10 µM
T1 construct: purchased NIMH PDSP (Psychoactive Drug Screening Program, Roth lab, Case Western Reserve)

5ht1e = target: T2, 5ht1e (Homo sapiens, UniProt P28566); test: PDSP receptor binding, 5ht1e; settings: PDSP primary screen at 10 µM
T2 construct: purchased NIMH PDSP (Psychoactive Drug Screening Program, Roth lab, Case Western Reserve)

5ht2a = target: T3, 5ht2a (Homo sapiens, UniProt P28223); test: PDSP receptor binding, 5ht2a; settings: PDSP primary screen at 10 µM
T3 construct: purchased NIMH PDSP (Psychoactive Drug Screening Program, Roth lab, Case Western Reserve)

5ht2b = target: T4, 5ht2b (Homo sapiens, UniProt P41595); test: PDSP receptor binding, 5ht2b; settings: PDSP primary screen at 10 µM
T4 construct: purchased NIMH PDSP (Psychoactive Drug Screening Program, Roth lab, Case Western Reserve)

5ht3 = target: T5, 5ht3 (Homo sapiens, UniProt P46098); test: PDSP receptor binding, 5ht3; settings: PDSP primary screen at 10 µM
T5 construct: purchased NIMH PDSP (Psychoactive Drug Screening Program, Roth lab, Case Western Reserve)

5ht6 = target: T6, 5ht6 (Homo sapiens, UniProt P50406); test: PDSP receptor binding, 5ht6; settings: PDSP primary screen at 10 µM
T6 construct: purchased NIMH PDSP (Psychoactive Drug Screening Program, Roth lab, Case Western Reserve)

[1] = PDSP receptor binding, β1B; settings: PDSP primary screen at 10 µM
α2A = target: T7, α2A (Homo sapiens, UniProt P08913); test: PDSP receptor binding, α2A; settings: PDSP primary screen at 10 µM
T7 construct: purchased NIMH PDSP (Psychoactive Drug Screening Program, Roth lab, Case Western Reserve)

α2C = target: T8, α2C (Homo sapiens, UniProt P18825); test: PDSP receptor binding, α2C; settings: PDSP primary screen at 10 µM
T8 construct: purchased NIMH PDSP (Psychoactive Drug Screening Program, Roth lab, Case Western Reserve)

Beta1 = target: T9, Beta1 (Homo sapiens, UniProt P08588); test: PDSP receptor binding, Beta1; settings: PDSP primary screen at 10 µM
T9 construct: purchased NIMH PDSP (Psychoactive Drug Screening Program, Roth lab, Case Western Reserve)

CB2 = target: T10, CB2 (Homo sapiens, UniProt P34972); test: PDSP receptor binding, CB2; settings: PDSP primary screen at 10 µM
T10 construct: purchased NIMH PDSP (Psychoactive Drug Screening Program, Roth lab, Case Western Reserve)

D1 = target: T11, D1 (Homo sapiens, UniProt P21728); test: PDSP receptor binding, D1; settings: PDSP primary screen at 10 µM
T11 construct: purchased NIMH PDSP (Psychoactive Drug Screening Program, Roth lab, Case Western Reserve)

D2 = target: T12, D2 (Homo sapiens, UniProt P14416); test: PDSP receptor binding, D2; settings: PDSP primary screen at 10 µM
T12 construct: purchased NIMH PDSP (Psychoactive Drug Screening Program, Roth lab, Case Western Reserve)

D5 = target: T13, D5 (Homo sapiens, UniProt P21918); test: PDSP receptor binding, D5; settings: PDSP primary screen at 10 µM
T13 construct: purchased NIMH PDSP (Psychoactive Drug Screening Program, Roth lab, Case Western Reserve)

DAT = target: T14, DAT (Homo sapiens, UniProt Q01959); test: PDSP receptor binding, DAT; settings: PDSP primary screen at 10 µM
T14 construct: purchased NIMH PDSP (Psychoactive Drug Screening Program, Roth lab, Case Western Reserve)

H2 = target: T15, H2 (Homo sapiens, UniProt P25021); test: PDSP receptor binding, H2; settings: PDSP primary screen at 10 µM
T15 construct: purchased NIMH PDSP (Psychoactive Drug Screening Program, Roth lab, Case Western Reserve)

H3 = target: T16, H3 (Homo sapiens, UniProt Q9Y5N1); test: PDSP receptor binding, H3; settings: PDSP primary screen at 10 µM
T16 construct: purchased NIMH PDSP (Psychoactive Drug Screening Program, Roth lab, Case Western Reserve)

H4 = target: T17, H4 (Homo sapiens, UniProt Q9H3N8); test: PDSP receptor binding, H4; settings: PDSP primary screen at 10 µM
T17 construct: purchased NIMH PDSP (Psychoactive Drug Screening Program, Roth lab, Case Western Reserve)

M1 = target: T18, M1 (Homo sapiens, UniProt P11229); test: PDSP receptor binding, M1; settings: PDSP primary screen at 10 µM
T18 construct: purchased NIMH PDSP (Psychoactive Drug Screening Program, Roth lab, Case Western Reserve)

M2 = target: T19, M2 (Homo sapiens, UniProt P08172); test: PDSP receptor binding, M2; settings: PDSP primary screen at 10 µM
T19 construct: purchased NIMH PDSP (Psychoactive Drug Screening Program, Roth lab, Case Western Reserve)

M5 = target: T20, M5 (Homo sapiens, UniProt P08912); test: PDSP receptor binding, M5; settings: PDSP primary screen at 10 µM
T20 construct: purchased NIMH PDSP (Psychoactive Drug Screening Program, Roth lab, Case Western Reserve)

MDR = test: PDSP receptor binding, MDR; settings: PDSP primary screen at 10 µM
MOR = target: T21, MOR (Homo sapiens, UniProt P35372); test: PDSP receptor binding, MOR; settings: PDSP primary screen at 10 µM
T21 construct: purchased NIMH PDSP (Psychoactive Drug Screening Program, Roth lab, Case Western Reserve)

NET = target: T22, NET (Homo sapiens, UniProt P23975); test: PDSP receptor binding, NET; settings: PDSP primary screen at 10 µM
T22 construct: purchased NIMH PDSP (Psychoactive Drug Screening Program, Roth lab, Case Western Reserve)

NMDA = test: PDSP receptor binding, NMDA; settings: PDSP primary screen at 10 µM
SERT = target: T23, SERT (Homo sapiens, UniProt P31645); test: PDSP receptor binding, SERT; settings: PDSP primary screen at 10 µM
T23 construct: purchased NIMH PDSP (Psychoactive Drug Screening Program, Roth lab, Case Western Reserve)

σ1 = target: T24, σ1 (Homo sapiens, UniProt Q99720); test: PDSP receptor binding, σ1; settings: PDSP primary screen at 10 µM
T24 construct: purchased NIMH PDSP (Psychoactive Drug Screening Program, Roth lab, Case Western Reserve)

α1β3γ2 BzR/GABA(A) = settings: Figure 1; LTK cells; read-out: Binding affinity α1; cited from earlier work
α2β3γ2 BzR/GABA(A) = settings: Figure 1; LTK cells; read-out: Binding affinity α2; cited from earlier work
α3β3γ2 BzR/GABA(A) = settings: Figure 1; LTK cells; read-out: Binding affinity α3; cited from earlier work
α4β3γ2 BzR/GABA(A) = settings: Figure 1; LTK cells; read-out: Binding affinity α4; cited from earlier work
α5β3γ2 BzR/GABA(A) = settings: text b7; read-out: Ki at the α5β3γ2 subtype; cited from earlier work
α6β3γ2 BzR/GABA(A) = settings: Figure 1; LTK cells; read-out: Binding affinity α6; cited from earlier work
[2] = tested on: GABA(A) receptor subtypes; settings: up to a concentration of 1 μM; any one of the subtypes tested; cited from earlier work
α2β3γ2 GABAA receptor = settings: cited from earlier work
α3β3γ2 GABAA receptor = settings: cited from earlier work
α5β3γ2 GABAA receptor = target: T25, α5β3γ2 GABAA receptor (Homo sapiens, UniProt P18507+P31644); settings: cited from earlier work
T25 construct: expressed in transfected cells; host or cells: Xenopus oocytes

α1β3γ2 GABAA/BzR = α1β3γ2 GABAA/BzR (Homo sapiens, UniProt P14867+P18507); test: Competition binding to HEK cell membranes, α1β3γ2; set-up: expressed in transfected cells; settings: Ki α1
α6β3γ2 GABAA/BzR = α6β3γ2 GABAA/BzR (Homo sapiens, UniProt P18507+Q16445); test: Competition binding to HEK cell membranes, α6β3γ2; set-up: expressed in transfected cells; settings: Ki α6

With `C#Cc1ccc2c(c1)C(=O)N(C)Cc1c(C(=O)OCCCOC(=O)c3ncn4c3CN(C)C(=O)c3cc(C#C)ccc3-4)ncn1-2` [XLi-093 (4), 1,3-Bis(8-acetyleno-5,6-dihydro-5-methyl-6-oxo-4H-imidazo[1,5a][1,4]benzodiazepine-3-carboxy) propyl diester] the “performance (mean delay achieved)” value (C57BL/6J mice; C57BL/6J mice, preliminary data, unpublished results (Wenger et al.)) was “enhances performance”, the “crossing of the blood brain barrier” value (C57BL/6J mice; inferred from the cognition effect in mice) was “does cross the blood brain barrier” and the 5ht1a binding (5ht1a) was “∗ (“∗” indicates “primary missed” (<50% inhibition at 10 µM))”. The 5ht1e binding (5ht1e) was “∗ (“∗” indicates “primary missed” (<50% inhibition at 10 µM))”, the 5ht2a binding (5ht2a) was “∗ (“∗” indicates “primary missed” (<50% inhibition at 10 µM))” and the 5ht2b binding (5ht2b) was “∗ (“∗” indicates “primary missed” (<50% inhibition at 10 µM))”. The 5ht3 binding (5ht3) was “∗ (“∗” indicates “primary missed” (<50% inhibition at 10 µM))”, the 5ht6 binding (5ht6) was “∗ (“∗” indicates “primary missed” (<50% inhibition at 10 µM))” and the β1B binding [1] was “∗ (“∗” indicates “primary missed” (<50% inhibition at 10 µM))”. The α2A binding (α2A) was “∗ (“∗” indicates “primary missed” (<50% inhibition at 10 µM))”, the α2C binding (α2C) was “∗ (“∗” indicates “primary missed” (<50% inhibition at 10 µM))” and the Beta1 binding (Beta1) was “∗ (“∗” indicates “primary missed” (<50% inhibition at 10 µM))”. The CB2 binding (CB2) was “∗ (“∗” indicates “primary missed” (<50% inhibition at 10 µM))”, the D1 binding (D1) was “∗ (“∗” indicates “primary missed” (<50% inhibition at 10 µM))” and the D2 binding (D2) was “∗ (“∗” indicates “primary missed” (<50% inhibition at 10 µM))”. The D5 binding (D5) was “∗ (“∗” indicates “primary missed” (<50% inhibition at 10 µM))”, the DAT binding (DAT) was “∗ (“∗” indicates “primary missed” (<50% inhibition at 10 µM))” and the H2 binding (H2) was “∗ (“∗” indicates “primary missed” (<50% inhibition at 10 µM))”. For the same molecule, the H3 binding (H3) was “∗ (“∗” indicates “primary missed” (<50% inhibition at 10 µM))”, the H4 binding (H4) was “∗ (“∗” indicates “primary missed” (<50% inhibition at 10 µM))” and the M1 binding (M1) was “∗ (“∗” indicates “primary missed” (<50% inhibition at 10 µM))”. The M2 binding (M2) was “∗ (“∗” indicates “primary missed” (<50% inhibition at 10 µM))”, the M5 binding (M5) was “∗ (“∗” indicates “primary missed” (<50% inhibition at 10 µM))” and the MDR binding (MDR) was “∗ (“∗” indicates “primary missed” (<50% inhibition at 10 µM))”. For the same molecule, the MOR binding (MOR) was “∗ (“∗” indicates “primary missed” (<50% inhibition at 10 µM))”, the NET binding (NET) was “∗ (“∗” indicates “primary missed” (<50% inhibition at 10 µM))” and the NMDA binding (NMDA) was “∗ (“∗” indicates “primary missed” (<50% inhibition at 10 µM))”. The SERT binding (SERT) was “∗ (“∗” indicates “primary missed” (<50% inhibition at 10 µM))”, the σ1 binding (σ1) was “∗ (“∗” indicates “primary missed” (<50% inhibition at 10 µM))” and the Ki (α1β3γ2 BzR/GABA(A)) was greater than 1000 nM. The Ki (α2β3γ2 BzR/GABA(A)) was greater than 1000 nM, the Ki (α3β3γ2 BzR/GABA(A)) was 858 nM and the Ki (α4β3γ2 BzR/GABA(A)) was 1550 nM. For the same molecule, the Ki (α5β3γ2 BzR/GABA(A)) was 15 nM, the Ki (α6β3γ2 BzR/GABA(A)) was greater than 2000 nM and the “triggering of chloride flux” value [2] was “did not trigger chloride flux”. For the same molecule, the “modulation of GABA induced chloride flux, α2β3γ2” value (α2β3γ2 GABAA receptor; at 1 μM) was “did not modulate”, the “influence on benzodiazepine (Valium) stimulation of GABA-induced current, α2β3γ2” value (α2β3γ2 GABAA receptor) was “barely influenced” and the “modulation of GABA induced chloride flux, α3β3γ2” value (α3β3γ2 GABAA receptor; at 1 μM) was “did not modulate”. The “influence on benzodiazepine (Valium) stimulation of GABA-induced current, α3β3γ2” value (α3β3γ2 GABAA receptor) was “barely influenced”, the “modulation of GABA induced chloride flux, α5β3γ2” value (α5β3γ2 GABAA receptor; at 1 μM) was “very slightly inhibited” and the “influence on benzodiazepine (Valium) stimulation of GABA-induced current, α5β3γ2” value (α5β3γ2 GABAA receptor) was “shifted the diazepam dose response curve to the right”. For the same molecule, the “inhibition of diazepam-stimulated currents in α5β3γ2 receptors” value (α5β3γ2 GABAA receptor) was “dose dependently and completely inhibit”, the Ki (α1β3γ2 GABAA/BzR) was greater than 1000 nM and the Ki (α6β3γ2 GABAA/BzR) was greater than 2000 nM.
